Like-named read-outs stand apart in the source and are kept apart here.
How the values were obtained:
[1] = MTT cell cytotoxicity assay; type: cell-based; settings: human, Huh7, HepAD38, HepG2, HepG2.2.15 cells, cell line not stated, read-out: 50% cytotoxic concentration (CC50)
Experimental: Since PIN1 and PIN4 were highly expressed in HCC cells, we speculated that the inhibition of parvulins via Juglone, PiB, ATRA, 6,7,4′-THIF, KPT6566, and EGCG might affect HBV replication (Figure 2A). The optimum dosage was determined in several HCC cell lines. Compared to mock or solvent-treated 10, 20, 30, 50, or 100 μM, drug-treated cell viabilities were determined by the MTT assay in Huh7, HepAD38, HepG2, and HepG2.2.15 cells (Figure 2B). The data from triplicate experiments were used to examine 50% cytotoxic concentration (CC50) of Juglone, PiB, ATRA, 6,7,4′-THIF, KPT6566, and EGCG via the GraphPad Prism software (Figure 2C). The CC50 values for Juglone and PiB were 30 and 40 μM, respectively. […] However, KPT6566 and EGCG depicted 45 and 80 μM as CC50 values, respectively. We optimized the effects of Juglone and PiB parvulin inhibitors in diverse HBV replicating HCC cell lines at 20 μM concentration. In addition, 30 μM concentrations were used to determine the effects of ATRA, 6,7,4′-THIF, and KPT6566 on HBV replication. While a 40 μM concentration of EGCG was optimized for determining the effects on HBV replication in multiple HCC cell lines.
Figure 2 MTT assay to measure the cytotoxicity of parvulin inhibitors (Juglone, PiB, ATRA, 6,7,4′-THIF, KPT6566, and EGCG). (A) The chemical structures of parvulin inhibitors including Juglone, PiB, ATRA, 6,7,4′-THIF, KPT6566, and EGCG are shown. (B) Huh7, HepAD38, HepG2, and HepG2.2.15 cells were exposed to varying concentrations (10 μM, 20 μM, 30 μM, 50 μM, and 100 μM) of inhibitors Juglone, PiB, ATRA, 6,7,4′-THIF, KPT6566, and EGCG for 48 h and values were determined via MTT assay. (C) The concentrations of Juglone, PiB, ATRA, 6,7,4′-THIF, KPT6566, and EGCG at which cell viability was reduced to 50% (CC50) to that of the control (cells treated by the solvent) were determined. TEXT PRINTED IN THE PICTURE: (C) Juglone: CC50: 30 | (C) PiB: CC50: 40 | (C) ATRA: CC50: 45 | (C) 6,7,4 THIF: CC50: 50 | (C) KPT6566: CC50: 45 | (C) EGCG: CC50: 80 DOUBTS OF THE COPYIST ABOUT THIS PICTURE: All CC50 labels in panel C are printed small and blurred, and no unit is printed with them / Juglone, CC50: 30 or 50 / ATRA, CC50: 45 or 46 / 6,7,4 THIF, CC50: 50 or 60 / KPT6566, CC50: 45 or 46 / EGCG, CC50: 80 or 30, first digit partly overlapped by an error bar
The cytotoxic effects of parvulin inhibitors (Juglone, PiB, ATRA, 6,7,4′-THIF, KPT6566, and EGCG) via MTT (3-[4,5-dimethylththiazol-2-yl]-2,5-diphenyltetrazolium bromide) assay were determined in Huh7, HepAD38, HepG2, and HepG2.2.15 cell lines. The cells were grown in 96-well microplates and incubated with serial dilutions of Juglone, PiB, ATRA, 6,7,4′-THIF, KPT6566, or EGCG for 48 h at 37°C. The cellular viabilities were examined after replacing the culture medium with 100 μl of MTT in DMEM. After 3 h, 100 μl of DMSO was added to dissolve the formazan of MTT. The absorbance value was measured at 570 nm via plate reader. Afterward, the concentrations of Juglone, PiB, ATRA, 6,7,4′-THIF, KPT6566, and EGCG at which cell viability was reduced to 50% (CC50) to that of the control were determined.

[2] = tested on: HBV replication in Huh7, HepAD38, HepG2, and HepG2.2.15 cells; type: cell-based, hepatitis B virus
[3] = 72 h, 20 μM Juglone or PiB, 30 μM ATRA, 6,7,4′-THIF or KPT-6566, 40 μM EGCG, vs solvent

Structure (SMILES)	CC50 at 48 h [1]	HBV RNA levels / HBV transcription (Northern blotting) [2, 3]	HBc expression, core particle synthesis and HBV DNA levels [2, 3]	HBV RNA levels / HBV transcription (Northern blotting) [2]	HBc expression, core particle synthesis and HBV DNA levels [2]
CCOC(=O)CN1C(=O)c2ccc3c4c(ccc(c24)C1=O)C(=O)N(CC(=O)OCC)C3=O [PiB, 1,3,6,8-tetrahydro-1,3,6,8-tetraoxo-benzo [lmn][3,8] phenanthroline-2,7-diacetic acid, 2,7-diethyl ester]	40 µM	significantly reduced	notably abrogated		
O=C(O[C@@H]1Cc2c(O)cc(O)cc2O[C@@H]1c1cc(O)c(O)c(O)c1)c1cc(O)c(O)c(O)c1 [EGCG, Epigallocatechin gallate]	80 µM	lower levels	reduced significantly		
O=C1C=CC(=O)c2c(O)cccc21 [Juglone, 5-hydroxyl-1,4-naphthoquinone]	30 µM	significantly decreased	dramatically reduced		
CC(C)(C)c1ccc(S(=O)(=O)N=C2C=C(SCC(=O)O)C(=O)c3ccccc32)cc1 [KPT6566, 2-[[4-[[[4-(1,1-dimethylethyl)phenyl]sulfonyl]imino]-1,4-dihydro-1-oxo-2-naphthalenyl]thio] acetic acid]	45 µM	restricted	restricted		
CC1=C(/C=C/C(C)=C/C=C/C(C)=C/C(=O)O)C(C)(C)CCC1 [ATRA, All-trans-retinoic acid]	45 µM			reduced	reduced
O=c1c(-c2ccc(O)cc2)coc2cc(O)c(O)cc12 [6,7,4′-THIF, 6,7-dihydroxy-3-(4-hydroxyphenyl)-4H-chromen-4-one]	50 µM	significantly aborted	significantly aborted		
